This is an account of results in patent publication US10493061B2, “Compositions and methods comprising 2-(acylamino)imidazoles” (priority 2014, dated 2019).

Each structure is given as a SMILES string. Values after ≈ are worked out from the molar mass of the structure shown. Values joined by “and” are separate entries in the source; they are usually repeats but may differ in a detail not shown here. Equal entries are not always repeated. Where two headings read alike, the source gives them in different places.

For series [1], the system named is Mycobacterium tuberculosis. The conditions noted are these: read-out: IC50 (anti-proliferative activity); MTT assay.
Protocol: (§1) Library screening and MIC determination for the compounds were performed in 96-well plates as described previously in Koch et al. Planta Med 2009; 75(12): 1326-1330. Different media were used for respective test organisms. […] Mycobacterium tuberculosis H37Ra (ATCC 25177) was grown in 7H9 medium with ADC supplement (Remel, Lenexa, Kans.). Final well volume was 200 μL. […] The remaining wells received 1 μL of test compound in DMSO, in triplicates for MIC determination. Incubation was overnight at 37° C. for other organisms except for M. tuberculosis which was incubated for 5 days. B. subtilis and M. tuberculosis received 11 μL of sterile 5 mg/mL 3-(4,5-dimethylthiazol-2-yl)-2,5-diphenyltetrazolium bromide (MTT) in PBS on day 1 or 4, respectively. Formazan precipitate was dissolved with 50 μL solubilization reagent (50% DMF, 5% SDS, 45% water). Plates were evaluated on a Muliskan FC plate reader (Fisher Scientific, Waltham, Mass.).
The nature of series [2]: ITC binding of naamidine A to ZnCl2. The conditions noted are these: ITC with significant amounts of MeOH; reasonable approximation. The text has this: While this is believed to be a reasonable approximation of this binding, these ITC experiments were convoluted by solubility issues of the different species, requiring significant amounts of MeOH which can affect the accuracy of ITC experiments. Fisicaro et al. Thermochim. Acta 2014, 586 (0), 40-44. With a Zn^2+ binding affinity in the high nanomolar range, NA's phenotypic activity is likely a result of both kinase modulation and zinc binding.

The subject of series [3] is A. baumanii. Kind of series: MIC determination in 96-well plates. It counts as cell-based, Acinetobacter baumannii (ATCC 19606). The conditions noted are these: Acinetobacter baumannii; read-out: MIC100.
Series [4] has as its system Candida albicans. As to the kind of experiment: MIC determination in 96-well plates. In kind it is cell-based, Candida albicans (ATCC 90028). The following applies: read-out: MIC100.
Series [5] has as its system Mycobacterium tuberculosis. Kind of series: microbe, parasite or virus in culture. The conditions noted are these: read-out: IC50 (anti-proliferative activity).
Protocol: as §1
For series [6] the following is noted: in vivo, mouse models (Ireland et al.); cited from earlier work.
The subject of series [7] is CEM-TART cells. Kind of series: Cytotoxicity in CEM-TART cells. It counts as cell-based.
A short description of series [8]: in vivo. The arrangement: species or system Sprague-Dawley rats. The following applies: female, Sprague-Dawley, rat. The protocol: ZNA has promising pkpd parameters. An initial pharmacokinetic (PK) analysis on ZNA was performed at 1 mg/kg IV, 5 mg/kg PO. ZNA was dosed to female Sprague-Dawley rats at either 1 mg/kg intravenously or at 5 mg/kg orally. Plasma was collected with K2EDTA and stored at −80° C. until analysis. Quantification of ZNA was performed by protein precipitation followed by ultra-high performance liquid chromatography (UHPLC) interfaced to an electrospray ionization quadrapole time-of-flight mass spectrometer (ESI-QTOF). Plasma concentrations were determined from a calibration curve using […]. The values determined were fit with Phoenix WinNonlin and pharmacokinetic values reported.
The plasma concentrations for ZNA were very low, and most samples fell below the lower limit of quantification for the assay (10.0 ng/mL). This limited the data available for fitting in WinNonlin. To increase the amount of data for fitting, values from below the curve were extrapolated to approximately 40% of the LLOQ and were used for PK fitting. The percent of the area extrapolated in the PO PK animals ranged from 34-70% which was considered quite high. […] The oral bioavailability determined was approximately 6%. This value is considered a rough estimate based upon the area extrapolated and the unusually high clearance determined. […] Possible explanations for the high clearance are binding of compound to red blood cells, extremely rapid clearance that requires collection of earlier time points to establish a more accurate CO, and extrahepatic elimination.

Series [9] deals with MCF-7s. Kind of series: Cell viability of MCF-7 cells treated with ZNA and ZNA analogues. The conditions noted are these: ZNA analogues and metabolite; assay not further specified. In kind it is cell-based, human. The text has this:
Of the analogues evaluated, those with more electron-donating groups at C5 or on the N^2-carbonyl seem to improve activity.

A short description of series [10]: Zn^2+ binding, (ZNA)2Zn dimer formation (MeOH precipitation, X-ray, NMR). The text has this:
The structure of the solid product was confirmed by X-ray crystallography (FIG. 14B). […] HCl in D2O protonates the ligand off the metal center, as evidenced by the disappearance of the diastereotopic benzyllic AB quartet in the dimer and its appearance as a singlet in the monomer. […] Of the analogues evaluated, those with more electron-donating groups at C5 or on the N^2-carbonyl seem to improve activity.

Take `COc1ccc(-c2c3cc(OC)c(OC)cc3cc3c2nc(N)n3C)cc1` [kealiinine B, Kealiinine B]: the IC50 in [1] amounted to 8.9 µM.
For the compound `COc1ccc(-c2c3nc(N)n(C)c3cc3cc(OC)c(OC)c(OC)c23)cc1` [kealiinine C, Kealiinine C], the IC50 in series [1] amounted to 42 µM.
`COc1ccc(Cc2nc(NC3=NC(=O)N(C)C3=O)n(C)c2Cc2ccc(O)cc2)cc1` [Naamidine A] showed a Kd in [2] of around 0.35 µM. Besides, the MIC was 79 µM (≈ 34.2 µg/mL) in [3] and 0.78 µM (≈ 0.338 µg/mL) in [4]. The IC50 in series [5] is 940 nM and 0.41 µg/mL; in [7] (CEM-TART cells), 34.8 µM. For the same compound, the maximum tolerated dose in series [6] is 25 mg/kg. The selectivity ratio in [7] (CEM-TART IC50 relative to M. tuberculosis IC50) stood at 37.
For `Cn1c(-c2ccc(O)cc2)c(Cc2ccccc2)[nH]/c1=N\C(=O)c1ccccc1F` [ZNA-18, (E)-N-(4-Benzyl-5-(4-hydroxyphenyl)-1-methyl-1H-imidazol-2(3H)-ylidene)-2-fluorobenzamide], the “ratio of major circulating metabolite to ZNA” value in [8] is given as 1:1. The result in [9] was active.
Consider `COc1ccc(-c2c(Cc3ccccc3)nc(N(C)C(=O)c3ccccc3F)n2C)cc1` [ZNA-17, N-(4-Benzyl-5-(4-methoxyphenyl)-1-methyl-1H-imidazol-2-yl)-2-fluoro-N-methylbenzamide], for which, in series [9], the activity entry is on record as “not active”. Further, the “Zn^2+ binding” value in [10] was “incapable of binding Zn^2+”.

A word on the IC50: it is the point on the concentration scale where inhibition reaches its midpoint. Broadly, the Kd is a measure of binding affinity in units of concentration. Low readings indicate tighter binding, high ones weaker binding.
